Read-outs that look alike come from different tables or passages of the source.
What was measured:
ACOX1 = target: T1, ACOX1 (Homo sapiens, UniProt Q15067); assay: Kinobeads two-dose competition binding: ACOX1; details: sheet CATDS matrix 2; Gene Name ACOX1;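 further: competition of compounds with immobilized broad-spectrum kinase inhibitor beads in cell lysate at 100 and 1,000 nM, 45 min at 4 °C, bead-bound protein quantified by label-free MS versus DMSO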
T1 construct: endogenous in cells
T1 sequence (Q15067 1-660): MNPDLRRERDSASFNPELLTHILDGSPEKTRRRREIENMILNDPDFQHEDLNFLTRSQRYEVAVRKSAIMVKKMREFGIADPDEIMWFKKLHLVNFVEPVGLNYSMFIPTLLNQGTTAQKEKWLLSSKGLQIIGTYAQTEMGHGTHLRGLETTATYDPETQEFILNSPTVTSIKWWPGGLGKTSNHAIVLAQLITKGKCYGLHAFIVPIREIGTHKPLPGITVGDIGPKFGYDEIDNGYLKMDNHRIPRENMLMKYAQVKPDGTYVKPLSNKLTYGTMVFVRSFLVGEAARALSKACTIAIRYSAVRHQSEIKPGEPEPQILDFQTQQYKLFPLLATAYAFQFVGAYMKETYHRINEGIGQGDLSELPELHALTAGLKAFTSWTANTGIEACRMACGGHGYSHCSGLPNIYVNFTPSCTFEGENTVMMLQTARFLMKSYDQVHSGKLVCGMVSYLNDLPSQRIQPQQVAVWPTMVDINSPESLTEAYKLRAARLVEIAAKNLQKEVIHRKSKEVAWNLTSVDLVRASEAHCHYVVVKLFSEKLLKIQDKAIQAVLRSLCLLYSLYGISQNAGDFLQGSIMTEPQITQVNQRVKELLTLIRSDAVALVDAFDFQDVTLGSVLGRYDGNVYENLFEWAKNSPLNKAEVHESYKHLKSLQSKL

AAK1 = target: T2, AAK1 (Homo sapiens, UniProt Q2M2I8); assay: Kinobeads two-dose competition binding: AAK1; details: for CATDS: sheet CATDS matrix 2, Gene Name AAK1; for potency estimated from few doses: read-out: Kinobeads Drugmatrix - all: apparent Kd, AAK1;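 on all read-outs here: kinobeads competition pulldown from cell lysate, compound preincubated 45 min at 4 °C, bead-bound protein measured by label-free mass spectrometry against DMSO vehicle control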
T2 construct: to maximize the representation of endogenous proteins; endogenous in cells
T2 sequence (Q2M2I8 whole entry): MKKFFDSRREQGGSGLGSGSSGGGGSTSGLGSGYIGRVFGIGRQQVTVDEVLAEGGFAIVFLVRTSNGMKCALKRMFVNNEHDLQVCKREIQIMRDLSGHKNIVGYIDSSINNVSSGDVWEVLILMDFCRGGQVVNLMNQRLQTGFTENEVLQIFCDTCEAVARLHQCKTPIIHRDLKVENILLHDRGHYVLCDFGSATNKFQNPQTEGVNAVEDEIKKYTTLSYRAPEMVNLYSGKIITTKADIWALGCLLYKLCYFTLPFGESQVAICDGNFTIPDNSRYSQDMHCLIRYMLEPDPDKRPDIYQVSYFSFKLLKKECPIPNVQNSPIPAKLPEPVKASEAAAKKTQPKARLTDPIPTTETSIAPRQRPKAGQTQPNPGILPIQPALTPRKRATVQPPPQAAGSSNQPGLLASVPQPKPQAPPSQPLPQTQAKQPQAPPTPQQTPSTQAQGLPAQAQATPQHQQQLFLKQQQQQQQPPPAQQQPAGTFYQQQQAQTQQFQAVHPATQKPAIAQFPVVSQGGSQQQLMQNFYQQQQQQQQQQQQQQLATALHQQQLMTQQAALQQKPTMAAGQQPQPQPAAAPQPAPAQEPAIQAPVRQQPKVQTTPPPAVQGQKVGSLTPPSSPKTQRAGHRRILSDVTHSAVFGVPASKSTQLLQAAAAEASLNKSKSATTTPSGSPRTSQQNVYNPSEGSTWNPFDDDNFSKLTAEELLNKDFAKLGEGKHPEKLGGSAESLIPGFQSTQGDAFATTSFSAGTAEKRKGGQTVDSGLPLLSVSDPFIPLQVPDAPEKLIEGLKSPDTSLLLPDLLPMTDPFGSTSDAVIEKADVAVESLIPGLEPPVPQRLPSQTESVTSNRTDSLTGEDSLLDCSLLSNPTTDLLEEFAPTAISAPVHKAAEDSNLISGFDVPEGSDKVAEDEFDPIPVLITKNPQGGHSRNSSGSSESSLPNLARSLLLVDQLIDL

ABL1 = ABL1 (Homo sapiens, UniProt P00519); assay: Kinobeads two-dose competition binding: ABL1; details: sheet CATDS matrix 2; Gene Name ABL1
Sequence of ABL1 (P00519 28-1130 limits assumed): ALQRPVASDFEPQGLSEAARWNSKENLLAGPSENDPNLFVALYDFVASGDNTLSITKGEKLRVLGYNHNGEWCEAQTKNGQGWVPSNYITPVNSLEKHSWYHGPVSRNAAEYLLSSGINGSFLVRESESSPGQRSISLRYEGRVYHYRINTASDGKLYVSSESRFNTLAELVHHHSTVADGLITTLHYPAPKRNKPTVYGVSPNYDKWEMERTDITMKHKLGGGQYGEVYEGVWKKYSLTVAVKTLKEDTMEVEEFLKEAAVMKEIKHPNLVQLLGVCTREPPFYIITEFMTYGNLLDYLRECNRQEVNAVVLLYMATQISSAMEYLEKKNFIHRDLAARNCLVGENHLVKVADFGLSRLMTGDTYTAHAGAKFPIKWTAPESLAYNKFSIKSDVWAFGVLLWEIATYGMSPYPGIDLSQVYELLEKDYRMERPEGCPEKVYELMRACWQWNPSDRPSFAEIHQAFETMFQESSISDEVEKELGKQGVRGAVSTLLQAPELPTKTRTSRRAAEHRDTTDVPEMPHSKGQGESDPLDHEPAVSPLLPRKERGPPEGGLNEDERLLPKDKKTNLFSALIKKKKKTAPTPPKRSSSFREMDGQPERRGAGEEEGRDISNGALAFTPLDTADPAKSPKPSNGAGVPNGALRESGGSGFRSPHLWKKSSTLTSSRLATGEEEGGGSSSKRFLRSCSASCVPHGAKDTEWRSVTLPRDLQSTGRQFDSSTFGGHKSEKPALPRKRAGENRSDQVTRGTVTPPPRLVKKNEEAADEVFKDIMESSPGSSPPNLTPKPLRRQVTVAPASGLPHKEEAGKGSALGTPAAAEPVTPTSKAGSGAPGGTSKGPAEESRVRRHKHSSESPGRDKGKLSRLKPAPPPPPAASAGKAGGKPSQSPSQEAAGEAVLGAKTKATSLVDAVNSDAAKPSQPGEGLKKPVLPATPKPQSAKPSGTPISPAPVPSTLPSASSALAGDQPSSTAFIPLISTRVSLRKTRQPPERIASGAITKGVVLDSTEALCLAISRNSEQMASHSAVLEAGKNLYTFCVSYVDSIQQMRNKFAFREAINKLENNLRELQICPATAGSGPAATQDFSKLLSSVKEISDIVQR

ABL2 = target: T3, ABL2 (Homo sapiens, UniProt P42684); assay: Kinobeads two-dose competition binding: ABL2; details: sheet CATDS matrix 2; Gene Name ABL2
T3 construct: endogenous in cells
T3 sequence (P42684 whole entry): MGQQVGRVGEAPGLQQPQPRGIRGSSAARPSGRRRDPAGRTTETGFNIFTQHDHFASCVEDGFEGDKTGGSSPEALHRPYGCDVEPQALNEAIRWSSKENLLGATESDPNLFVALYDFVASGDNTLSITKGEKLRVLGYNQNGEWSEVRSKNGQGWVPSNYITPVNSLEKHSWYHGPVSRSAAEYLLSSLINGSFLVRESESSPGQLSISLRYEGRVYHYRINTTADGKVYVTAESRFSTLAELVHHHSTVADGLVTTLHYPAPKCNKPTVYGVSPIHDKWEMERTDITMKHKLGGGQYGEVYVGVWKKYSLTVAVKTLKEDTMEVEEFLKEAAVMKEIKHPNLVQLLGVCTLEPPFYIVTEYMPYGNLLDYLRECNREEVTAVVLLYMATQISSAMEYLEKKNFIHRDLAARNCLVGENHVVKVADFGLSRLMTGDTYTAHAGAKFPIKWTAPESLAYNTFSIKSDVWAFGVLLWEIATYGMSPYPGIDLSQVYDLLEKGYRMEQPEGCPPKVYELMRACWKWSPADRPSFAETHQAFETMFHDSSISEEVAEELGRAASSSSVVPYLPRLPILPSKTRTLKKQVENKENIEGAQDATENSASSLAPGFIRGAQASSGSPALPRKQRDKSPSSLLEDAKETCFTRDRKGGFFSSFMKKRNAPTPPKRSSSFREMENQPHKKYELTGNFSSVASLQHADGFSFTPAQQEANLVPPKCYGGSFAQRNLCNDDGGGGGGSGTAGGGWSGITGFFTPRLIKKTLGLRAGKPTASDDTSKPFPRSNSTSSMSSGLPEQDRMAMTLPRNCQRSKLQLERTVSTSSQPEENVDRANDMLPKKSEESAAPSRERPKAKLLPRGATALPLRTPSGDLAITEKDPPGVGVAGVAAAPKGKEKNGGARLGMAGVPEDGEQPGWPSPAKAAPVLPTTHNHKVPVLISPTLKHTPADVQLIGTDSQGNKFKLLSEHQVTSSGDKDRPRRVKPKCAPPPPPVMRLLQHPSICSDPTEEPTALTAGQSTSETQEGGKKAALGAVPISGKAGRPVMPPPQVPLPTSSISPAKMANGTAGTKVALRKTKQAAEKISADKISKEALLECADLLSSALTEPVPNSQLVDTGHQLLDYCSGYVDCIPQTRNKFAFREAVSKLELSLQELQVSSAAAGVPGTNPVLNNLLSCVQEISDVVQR

ACAD11 = target: T4, ACAD11 (Homo sapiens, UniProt Q709F0); assay: Kinobeads two-dose competition binding: ACAD11; details: sheet CATDS matrix 2; Gene Name ACAD11
T4 construct: endogenous in cells
T4 sequence (Q709F0 1-780): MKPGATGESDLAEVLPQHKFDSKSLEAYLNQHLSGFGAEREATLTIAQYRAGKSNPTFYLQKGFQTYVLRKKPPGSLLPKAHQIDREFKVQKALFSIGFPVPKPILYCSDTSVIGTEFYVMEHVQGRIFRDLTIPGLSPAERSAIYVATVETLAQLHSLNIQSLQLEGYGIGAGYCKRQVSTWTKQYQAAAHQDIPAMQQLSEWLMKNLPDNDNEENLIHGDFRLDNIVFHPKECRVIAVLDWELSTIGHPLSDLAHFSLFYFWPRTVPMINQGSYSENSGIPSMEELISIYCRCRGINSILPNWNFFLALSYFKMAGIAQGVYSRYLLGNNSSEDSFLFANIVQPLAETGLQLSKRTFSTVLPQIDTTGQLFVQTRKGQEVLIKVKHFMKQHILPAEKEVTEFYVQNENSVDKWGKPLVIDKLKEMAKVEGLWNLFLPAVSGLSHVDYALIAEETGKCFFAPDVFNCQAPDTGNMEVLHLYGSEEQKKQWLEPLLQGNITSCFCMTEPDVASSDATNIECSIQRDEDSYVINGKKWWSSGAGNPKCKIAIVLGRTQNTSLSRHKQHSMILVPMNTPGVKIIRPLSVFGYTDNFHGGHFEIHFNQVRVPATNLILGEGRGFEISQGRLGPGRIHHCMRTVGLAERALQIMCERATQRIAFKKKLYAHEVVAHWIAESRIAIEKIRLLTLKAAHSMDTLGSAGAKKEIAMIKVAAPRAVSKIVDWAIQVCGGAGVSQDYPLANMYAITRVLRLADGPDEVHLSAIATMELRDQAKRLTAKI

CATDS (ACOX1)	CATDS (AAK1)	CATDS (ABL1)	CATDS (ABL2)	CATDS (ACAD11)	potency estimated from few doses (AAK1; sheet "Kinobeads Drugmatrix - all", unit inferred, same values below 1000 recur in sheet "nanomolar") [nM]	Compound	potency estimated from few doses (AAK1) [nM]
0	0	0	0	0	–	COc1cc2ncn(-c3cc(OCCc4ccccc4)c(C(N)=O)s3)c2cc1OC [GSK204925A]	–
0	0	0	0	0	–	COc1cc2ncn(-c3cc(OCC4CCCO4)c(C(N)=O)s3)c2cc1OC (stereo not shown) [GSK204607A]	–
0	0	0	0	0	–	COc1cc(N2CCN(C(C)C)CC2)ccc1Nc1nc(Nc2ccc(F)cc2C(N)=O)c2cc[nH]c2n1 [GSK1220512A]	–
0	0	0	0	0	–	COc1ccc(Nc2nccc(N3CCC(NC(=O)c4cc5ccccc5s4)C3)n2)cc1 (stereo not shown) [GSK1379738A]	–
0	0	0	0	0	–	Cc1nn2c(=O)cc(N3CCOCC3)nc2n1Cc1cccc(Cl)c1Cl [GSK2342769A]	–
0	0	0	0	0	–	Cc1ccc(NC(=O)c2cccc(C#N)c2)cc1-c1ccc(C(=O)Nc2ccncc2)cc1 [GSK1398463A]	–
0	0	0	0	0	–	CC(=O)c1cccc(NC(=O)NC2CCN(c3ccnc(Nc4ccc(F)cc4)n3)C2)c1 (stereo not shown) [GSK1379710A]	–
0	0	0	0	0	–	COc1ccc(Nc2nccc(N3CCC(NC(=O)c4cccc(C#N)c4)C3)n2)cc1 (stereo not shown) [GSK1379730A]	–
0	0	0	0	0	–	COc1cc(N2CCN(C(C)C)CC2)ccc1Nc1nc(Nc2cccc(F)c2C(=O)O)c2cc[nH]c2n1 [GSK1819799A]	–
0	0	0	0	0	–	CC1=C(C(=O)Nc2ccc3[nH]ncc3c2)C(c2ccc(F)cc2)NC(=O)N1 (stereo not shown) [GSK180736A]	–
0	0.2807	0	0	0	149	CC(C)Nc1cc(-c2ccc3c(N)n[nH]c3c2)nc(N)n1 [GSK2221681A]	–
0	0	0	0	0	–	C[C@H]1CC[C@@H](C(=O)Nc2ccccc2)CN1c1cc(-c2ccc3c(N)n[nH]c3c2)nc(N)n1 [GSK2283293_KCGS]	–
0	0	0	0	0	–	CC(C(=O)NC1CCN(c2ccnc(Nc3ccc(F)cc3)n2)C1)c1ccc(Cl)cc1 (stereo not shown) [GSK1379713A]	–
0	0	0	0	0	–	O=c1[nH]c2cc(Nc3ccc(F)cc3F)ccc2n1CC1CCCCC1 [BI00601000]	–
0	0	0	0	0	–	C[C@@H]1CCNC(=O)c2cc3ccc(C(=O)Nc4nc5ccccc5n4CCCN(C)C)cc3n21 [BI00645435]	–

Compound	CATDS (ACOX1)	CATDS (AAK1)	CATDS (ABL1)	CATDS (ABL2)	CATDS (ACAD11)	potency estimated from few doses (AAK1; sheet "Kinobeads Drugmatrix - all", unit inferred, same values below 1000 recur in sheet "nanomolar") [nM]	potency estimated from few doses (AAK1) [nM]
NC[C@H](CC1CCCCC1)NC(=O)c1ccc(-c2ccnc3[nH]ccc23)s1 [GSK1581428A]	0	0.07203	0	0	0	–	54.5
O=c1[nH]ccc2nc(N[C@@H]3CCNC3)nc(Nc3cc(Cl)cc(Cl)c3)c12 [GSK2188764A]	0	0.04842	0	0	0	–	114
